Columns and labels:
[1] = xn = mol fraction of the nth substance listed; settings: 318.15 K, 101.3 kPa, Liquid, Vibrating tube method
[2] = molar heat capacity at constant pressure; xn = mol fraction of the nth substance listed; settings: 101.3 kPa, Liquid, Small sample (50 mg) DSC

C[N+](=O)[O-] [nitromethane] + CCCCn1cc[n+](C)c1.F[B-](F)(F)F
[1]
Settings | mass density [kg/m3]
x2 = 0.5058 | 1178
x2 = 0.6016 | 1181.6
x2 = 0.6455 | 1183
x2 = 0.6837 | 1184
x2 = 0.7793 | 1186.3
x2 = 0.8867 | 1188.3

molar heat capacity at constant pressure [J/K/mol], [2]
Settings | 293.15 K | 298.15 K | 303.15 K | 308.15 K | 313.15 K | 318.15 K
x2 = 0.0525 | 119.2 | 119.6 | 120 | 120.5 | 121 | 121.4
x2 = 0.1029 | 131.6 | 132.1 | 132.7 | 133.3 | 133.9 | 134.3
x2 = 0.1943 | 154.9 | 155.6 | 156.4 | 157.1 | 157.8 | 158.3
x2 = 0.2941 | 180.5 | 181.5 | 182.5 | 183.3 | 184.1 | 184.7
x2 = 0.3911 | 205.4 | 206.7 | 208 | 209.1 | 210.1 | 210.9
x2 = 0.5609 | 248.8 | 250.6 | 252.3 | 253.8 | 255.1 | 256.2
x2 = 0.7062 | 285.8 | 288.1 | 290.2 | 292.1 | 293.7 | 295.1
x2 = 0.7578 | 299 | 301.4 | 303.7 | 305.6 | 307.3 | 308.7
x2 = 0.897 | 334.5 | 337.4 | 340 | 342.3 | 344.2 | 345.9
x2 = 0.9436 | 346.4 | 349.5 | 352.3 | 354.7 | 356.8 | 358.5
x2 = 0.9716 | 353.6 | 356.7 | 359.5 | 362 | 364.1 | 365.8

From the NIST ThermoML archive (doi:10.1016/j.jct.2008.09.002)
